Measured values: patent US4997838A, “Pyrrolopyrimidine derivatives, their production and use” (Takeda Chemical Industries, Ltd., priority 1988, dated 1991)
≈ marks a conversion by molar mass, not a printed value. Blank lines part the entries; values can stand above or below the compound they belong to.

What was measured:
[1] = tested on: dihydrofolic acid reductase; settings: in words; cited from earlier work
solid cancer = settings: in words; clinical use; cited from earlier work
[2] = tested on: Human nasopharyngeal cancer KB cells; test: cell growth inhibiting effect in KB cells (MTT); type: cell-based; settings: 72 hours
Experimental: Human nasopharyngeal cancer KB cells (1×10^4 cells/ml) prepared according to a conventional method were inoculated into each well of the 96-microwell plate (0.1 ml in a well) and subjected to standing culture at 37° C. under 5% CO2 for 24 hours. To this was added a solution of one of the compounds obtained in the Working Examples in 10% MEM (Nissui Pharmaceutical Co. Ltd.), and subjected again to standing culture at 37° C. under 5% CO2 for 72 hours. Then the culture was pipetted out, and another 0.1 ml of the solution of MTT (Dojindo Laboratories) in 10% MEM (1.0 mg/ml) was added and incubated at 37° C. for 4 hours. Then 0.1 ml of the 10% SDS solution (Wako Pure Chemicals) was added and incubated at 37° C. for further 24 hours. The absorbance at 590 nm was measured and the IC50 value of the compound was defined as the concentration of the compound required to decrease the number of cells in the untreated control group by 50%.

[3] = tested on: Human Leukemia cells HL-60; test: cell growth inhibiting effect in HL-60 cells ([3H]-thymidine incorporation); type: cell-based; settings: HL-60, 68 hours + 4 hours [3H]-thymidine
Experimental: (1) Human Leukemia cells HL-60 (2×10^5 cells/ml) were suspended in the GIT culture medium (Wako Pure Chemicals) containing the compound of this invention and 0.2 ml of the suspension was inoculated into each well of the 96-microwell plate. After standing culture at 37° C. under 5% CO2 for 68 hours, 1 μCi of [^3 H]-thymidine (5 Ci/mmol) was added and the mixture was incubated for 4 further hours. For measurement of the incorporation of thymidine into the cells, the acid-insoluble fraction was collected on a glass filter, and the radioactivity of the fraction was measured by a liquid scintillation counter. The IC50 value of the compound was defined as the concentration of the compound required to decrease the radioactivity incorporated into the cells in the untreated control group by 50%.

[4] = tested on: Human fetal normal lung fibroblasts HEL; test: cell growth inhibiting effect in HEL cells (MTT); type: cell-based; settings: Fibroblast, 72 hours
Experimental: (2) Human fetal normal lung fibroblasts HEL (1×10^4 cells/ml) were suspended in the MEM culture medium (Nippon Flow Laboratories) and 0.1 ml of the suspension was inoculated into each well of the 96-microwellplate. After standing culture at 37° C. under 5% CO2 for 24 hours, MEM culture medium containing the compound of this invention was added and the mixture was incubated for further 72 hours. The medium was replaced by the medium containing 1 μg/ml of MTT (Dojindo Laboratories), to which was added 10% SDS (Wako Pure Chemicals), and incubated overnight. Absorbance at 590 nm was measured by he Multiscan (Titertec Co.). The IC50 value was determined by comparing the absorbance in the untreated control group.

Structure (SMILES): CN(Cc1cnc2nc(N)nc(N)c2n1)c1ccc(C(=O)N[C@@H](CCC(=O)O)C(=O)O)cc1 [MTX]
inhibition of dihydrofolic acid reductase [1]: inhibit the reduction from dihydrofolic acid into tetrahydrofolic acid by coupling strongly with the dominant enzyme
effect on solid cancer (solid cancer): little effect on solid cancer
toxicity (solid cancer): relatively strong toxicity

IC50 [2]: 0.0003 µg/mL (≈ 0.681 nM)
Structure (SMILES): Nc1nc(N)c2c(CCCc3ccc(C(=O)N[C@@H](CCC(=O)O)C(=O)O)cc3)c[nH]c2n1 [Working Example 4, N-[4-[3-(2,4-diamino-7H-pyrrolo [2,3-d]pyrimidin-5-yl)propyl]benzoyl]-L-glutamic acid]

IC50 [2]: 0.08 µg/mL (≈ 175 nM)
Structure (SMILES): Nc1nc(N)c2c(CCCc3ccc(C(=O)N[C@@H](CCC(=O)O)C(=O)O)cc3)c(O)[nH]c2n1 [Working Example 6, N-[4-[3-(2,4-diamino-6-hydroxy-7H-pyrrolo[2,3-d]pyrimidin-5-yl)propyl]benzoyl]-L-glutamic acid]

IC50 [3]: 0.04 µg/mL
Structure (SMILES): Nc1nc(O)c2c(n1)NCC2CCCc1ccc(C(=O)N[C@@H](CCC(=O)O)C(=O)O)cc1 (stereo partly drawn) [Working Example 14, N-[4-[3-(2-amino-4-hydroxy-5,6-dihydropyrrolo[2,3-d]pyrimidin-5-yl)propyl]benzoyl]-L-glutamic acid]
IC50 [4]: > 20 µg/mL

IC50 [2]: 0.0006 µg/mL (≈ 1.36 nM)
Structure (SMILES): Nc1nc(N)c2c(n1)NCC2CCCc1ccc(C(=O)N[C@@H](CCC(=O)O)C(=O)O)cc1 (stereo partly drawn) [Working Example 16, N-[4-[3-(2,4-diamino-5,6-dihydropyrrolo[2,3-d]pyrimidin-5-yl)propyl]benzoyl]-L-glutamic acid]
